Test results from US9210914B2, “Method for training honeybees to respond to olfactory stimuli and enhancement of memory retention therein” (LOS ALAMOS NATIONAL SECURITY, LLC, priority 2011, dated 2015).

What was measured:
Format in all cases: in vivo, Apis mellifera
honeybees [1] = assay: Long-term memory retention of conditioned PER response in honeybees fed supplements
Method: (§1) The bees were brought back to the lab and split into three groups. One control group was fed 40% sugar water in a trough or on parafilm in cage. […] The second and third experimental groups were given 40% sugar water spiked with the cocktail. All honeybees were handled the same way. The mixture was to the honeybees from the beginning of capture, through training and until the completion of the experiment.
Long-term memory enhancements using PKA and caffeine were also tested. […] Approximately 3.9 units PKA/bee (1 μl) and 15.6 units PKA/bee (4 μl) were administrated.

honeybees [2] = assay: Trainability of honeybees in PER olfactory conditioning; conditions: JHIII alone, 250 mg/ml in acetone, topical administration to thorax, 3 ul; foragers (TNT) or young (linalool)
honeybees [3] = assay: Death rate of honeybees after supplement administration; conditions: Four μl PKA (15.6 units PKA/bee)
Method: as §1
Long-term memory enhancements using PKA and caffeine were also tested. Caffeine and PKA, when administered separately, increase long-term memory out to a minimum of 3 days post training. Approximately 3.9 units PKA/bee (1 μl) and 15.6 units PKA/bee (4 μl) were administrated.

[4] = 1 μl PKA (approximately 3.9 units PKA/bee)

Cn1c(=O)c2c(ncn2C)n(C)c1=O [Caffeine, caffeine]
long term memory recall (honeybees [1]; caffeine at 2.5 mM, compared to concentrations ranging 0-5 mM): best improvement in long term memory recall

COC(=O)/C=C(\C)CC/C=C(\C)CC[C@H]1OC1(C)C [JHIII, Juvenile Hormone III]
trainability (honeybees [2]): does not appear to substantially increase trainability

Nc1ncnc2c1ncn2[C@@H]1O[C@@H]2COP(=O)(O)O[C@H]2[C@H]1O [cAMP, cyclic adenosine monophosphate]
long-term memory in honeybees trained to C-4 (honeybees [1]; 1mM cAMP ingested in 40% sucrose solution, alone): did not appear to significantly increase long-term memory

protein kinase A [PKA]
death rate at Day 3 post training and exposure (honeybees [3]): larger death rate | long-term memory at the 24 hour mark (honeybees [1]; [4]): increase in long-term memory | long-term memory at the 48 hour mark (honeybees [1]; [4]): increase in long-term memory
